Assay results from PubChem BioAssay (NCI).
Where “and” joins values, the source holds several entries; their conditions need not be identical. Equal entries are not always repeated.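 Tested at 5 concentrations; 48 h exposure; 96-well plates; endpoints linearly interpolated, else capped at highest concentration. GI50 = concentration required for 50% inhibition of growth. TGI is the concentration that stops growth completely.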

These compounds were tested on MDA-MB-468 breast (assay: growth of human tumour cells (NCI), 48 h).
For Cc1cnc(NC(=O)Nc2cc(Br)c(C)cc2OC[C@@H]2CNCCO2)cn1, the GI50 was 3860 nM and 834 nM and the TGI was > 10000 nM and 5490 nM. With FC(F)c1nc2ccccc2n1-c1nc(N2CCOCC2)nc(N2CCOCC2)n1 the GI50 was 135 nM and 124 nM and the TGI was 971 nM and 607 nM. COc1cc(/C=C2\C(=O)Nc3cc(C)c(O)cc32)cc(OC)c1OC was tested, and the GI50 was 1500 nM and the TGI was 5880 nM. COc1cc(NC(N)=NCCC(C)(C)Oc2ccc(C(F)(F)F)cc2)ncc1C#N was tested, and the GI50 was 1070 nM and the TGI was 2440 nM. In the case of COc1cc(OC)cc(N(CCNC(C)C)c2ccc3ncc(-c4cnn(C)c4)nc3c2)c1, the GI50 is reported as 3070 nM and the TGI is reported as 13000 nM. In the case of Fc1ccc2[nH]cc(-c3nonc3-c3c[nH]c4ccc(Br)cc34)c2c1, the GI50 is reported as 1940 nM and the TGI is reported as 4720 nM. Cc1nn(-c2nc3ccccc3[nH]2)c(N)c1-c1ccc(Cl)cc1 showed a GI50 of 2690 nM and a TGI greater than 100000 nM. Cn1cc(C2=C(c3cn(CCCCN)c4ccccc34)C(=O)NC2=O)c2ccccc21 gave a GI50 greater than 25000 nM and a TGI greater than 25000 nM. In the case of COC(=O)CCc1c[nH]c2ccc(N(CCCl)CCCl)cc12, the GI50 is reported as 311 nM and the TGI is reported as 1810 nM. In the case of Cc1ccc2c(n1)C(=O)C(Cl)=C(Nc1ccc(C)c(C)c1)C2=O, the GI50 is reported as 317 nM and the TGI is reported as 1340 nM. O=c1c(Oc2ccc(F)cc2F)cc2cnc(NC3CCOCC3)nc2n1CCCO was tested, and the GI50 was greater than 25000 nM and the TGI was greater than 25000 nM. Work on O=C(CO[N+](=O)[O-])Nc1ccc(C(=O)/C=C/c2ccc(Cl)cc2)cc1 yielded a GI50 of 2060 nM and a TGI of 5070 nM. Compound O=C(Nc1cccc(-n2ccc3c(NC(=O)c4ccccc4)nccc32)c1)Nc1cc(C(F)(F)F)cc(C(F)(F)F)c1 has a GI50 of 1550 nM and a TGI of 13600 nM. In the case of O=S(=O)(Nc1ccccc1Cl)c1ccc(-c2cnc(C3CC3)o2)cc1, the GI50 is reported as 236 nM and the TGI is reported as 6910 nM. For COc1cccc(-c2cc(=O)c3cc(OC)ccc3[nH]2)c1, the GI50 was 982 nM and the TGI was greater than 100000 nM. For OCc1ccc(-c2ccc(-c3ccc(CO)o3)[se]2)o1, the GI50 was 219 nM and the TGI was 704 nM. COC(=O)c1c2c(c[n+]([O-])c1C)C(=O)C=CC2=O gave a GI50 of 914 nM and a TGI of 3010 nM. In the case of CCc1cccc(C)c1NC(=O)c1sc2nc3c(cc2c1N)CCCCC3, the GI50 is reported as 4180 nM and the TGI is reported as greater than 100000 nM. Compound COC(=O)[C@@H](C)C[C@H](Cc1ccccc1)NC(=O)c1csc(CC[C@H](C(C)C)N(C)C(=O)[C@@H](NC(=O)[C@H]2CCCCN2C)C(C)C)n1 has a GI50 of 68.9 nM and a TGI of 275 nM. For Cc1nc(SCC(=O)Nc2nc(-c3ccc(Cl)cc3)cs2)n(Nc2ccccc2)c1C, the GI50 was 1450 nM and the TGI was 6270 nM. Compound CCOC(=O)c1sc(-c2ccc(OS(=O)(=O)c3ccc(Br)s3)c(C=O)c2)nc1C has a GI50 of 2960 nM and a TGI of 9200 nM. In the case of CN[C@H]1C=C[C@@H]2/C=C(C)/C=C/[C@@H](C)[C@H]([C@H](C)[C@H](O)[C@@H](C)NC(C)=O)OC(=O)/C=C/C=C(C)\C=C\[C@]2(C)C1, the GI50 is reported as < 1 nM and 4.9 nM. With COc1ccc(-c2cn[nH]c2-c2cc(OC)c3c(c2)OCO3)cc1 the GI50 was 152 nM and the TGI was 733 nM. In the case of COc1ccc(C(=O)/C=C/c2ccc(C)cc2)cc1OC, the GI50 is reported as 11400 nM and the TGI is reported as 24600 nM. C=C1C(=O)O[C@H]2[C@H]1CC/C(COC(=O)CSCCSCC(=O)OC/C1=C/CC[C@@]3(C)O[C@H]3[C@H]3OC(=O)C(=C)[C@@H]3CC1)=C\CC[C@@]1(C)O[C@@H]21 gave a GI50 of 1070 nM and a TGI of 2850 nM. Work on CC[N+](CC)=c1sc2c(s1)C(c1ccc(Cl)cc1)Oc1ccc(Cl)cc1-2 (stereo unspecified) yielded a GI50 of 1400 nM and a TGI of 4120 nM. Work on CCCNNC(=O)/C=C/c1ccc(CNCCc2c(C)[nH]c3ccccc23)cc1 yielded a GI50 of 27.9 nM and a TGI of 529 nM. Compound Cc1ccc(C)c2c1C(O)(C#Cc1ccccc1)c1ccccc1C2(O)C#Cc1ccccc1 (stereo unspecified) has a GI50 of 3570 nM and a TGI greater than 100000 nM. Compound Cc1ccc(-c2csc(/N=C3\C(=O)Nc4ccccc43)n2)cc1 has a GI50 of 1460 nM and a TGI of 3510 nM. Work on S=C(Nc1ccc(Br)cc1)Nc1ccc(Br)cc1 yielded a GI50 of 2260 nM and a TGI of 14000 nM. C#CCOc1cccc(-c2ncnc3cc(NC(=O)CCl)ccc23)c1 gave a GI50 of 1450 nM and a TGI of 3540 nM. For COC(=O)CCC(=O)NC1=C(Nc2ccc(OC)cc2)C(=O)c2ccccc2C1=O, the GI50 was 3090 nM and the TGI was 12200 nM. For CCN(Cc1cccc(F)c1)c1ccc(CO)c(Cl)c1, the GI50 was 15.7 nM and the TGI was 38.1 nM. CN(C)CCCOc1ccc(-c2ccc3ncc4c(c3c2)n(C2CCOCC2)c(=O)n4C)cn1 gave a GI50 of 2080 nM and a TGI of 15700 nM. COc1cc(-c2cc3ncccc3c3nc(N)c4cccnc4c23)cc(OC)c1OC gave a GI50 of 555 nM and a TGI of 66800 nM. CO[C@H]1/C=C/O[C@@]2(C)Oc3c(C)c(O)c4c(c3C2=O)C(=O)C(/C=N/N(c2ccccc2)c2ccccc2)=C(NC(=O)/C(C)=C\C=C\[C@H](C)[C@H](O)[C@@H](C)[C@@H](O)[C@@H](C)[C@H](OC(C)=O)[C@@H]1C)C4=O was tested, and the GI50 was 2090 nM and the TGI was 4690 nM. Work on CCC[CH2][Sn]([CH2]CCC)([CH2]CCC)[O]c1ccc(Cl)cc1Cl yielded a GI50 of 105 nM and a TGI of 250 nM. With CNC(=O)c1ccc(N2CCN(Cc3ccc4nc(C)c(=O)[nH]c4c3F)CC2)c(F)n1 the GI50 was 27800 nM and the TGI was greater than 100000 nM. Compound Nc1ccc(C2=NN(c3ccccc3)C(c3ccc(Cl)cc3)C2)cc1 (stereo unspecified) has a GI50 of 1660 nM and a TGI of 4090 nM. CCOC(=O)N1CCN(c2nc(Nc3cc(C)[nH]n3)c3ccccc3n2)CC1 was tested, and the GI50 was 1800 nM and the TGI was 8420 nM. CN(C)S(=O)(=O)c1ccc(-c2nc(C(Cl)Cl)nc3cc(-c4ccc(F)cc4)nn23)cc1 showed a GI50 of 1630 nM and a TGI of 4640 nM.
